For 30 compounds, TGI and GI50 results are on record in PubChem BioAssay (NCI).

Common to all, as to assay: NCI anticancer screen, dose series, 48 h
For experiment [1], the system named is NCI-H226 lung.
Experiment [2] relates to M14 melanoma.
Experiment [3] relates to HOP-62 NSCLC.
Experiment [4] relates to HL-60(TB) leukemia.
In experiment [5] the test system is OVCAR-4 ovarian.
In experiment [6] the test system is RXF 393 renal.
The subject of experiment [7] is A498 renal.
Experiment [8] deals with RPMI-8226 leukemia.
The test system of experiment [9] is HOP-92 NSCLC.

Several values for one entry are separate records, joined by “and”; a condition that tells them apart may be missing. Identical values can stand only once.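 Compound exposure: 48 hours, 5 concentrations, 96-well plates. The concentration for 50% growth inhibition is given as GI50. Definition used: TGI = concentration required for complete inhibition of growth.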

In the case of `Clc1cc(Cl)c2ns[s+]c2c1Cl`, the TGI in experiment [1], in experiment [2], in experiment [3], in [4], in [5] and in [6] was > 100 µM throughout. Besides, in [7], the TGI was > 100 µM.

For `CNC(=S)/N=C(\N)N(C)C`, the TGI in experiment [1], in experiment [2], in experiment [8], in experiment [3], in experiment [9] and in experiment [4] was > 100 µM each time. The TGI in experiment [5] was > 10 µM; in experiment [6], > 100 µM; in [7] it was > 100 µM.

Take `CCCCNC1CCCCC[C@H]1O` (stereo partly specified): the TGI in experiment [1], in experiment [2], in experiment [8], in [3], in experiment [9] and in [4] was > 100 µM in each case. The TGI in [5] and in experiment [6] was > 100 µM throughout.

As for `CCOC(=O)/C(C)=C(/O)C(=O)OCC`, the TGI in experiment [1], in experiment [2], in experiment [8], in experiment [3], in experiment [9] and in [4] was > 100 µM in each case. Also, the TGI in experiment [5], in [6] and in experiment [7] was > 100 µM throughout.

In the case of `COC(=O)[C@@]12C(=O)C=CC(=O)C1C1C(=CC2C)OC2OC3(CCCCC3)OC21` (stereo partly specified), the TGI in experiment [1] stood at 33.7 µM; in experiment [2], 33.6 µM; in experiment [8], 26.4 µM; in experiment [3] it was 35.8 µM; in [4] it was 15.7 µM; in [5], 30.3 µM. The same compound returned a TGI in experiment [7] of 32.2 µM.

Consider `COc1cc2[nH]c3c(c2cc1OC)CCN[C@]31CC[C@]2(CC3c4c(cc(OC)c(O)c42)CCN3C)C[C@H]1OC` (stereo partly specified), for which the TGI in experiment [1] is > 100 µM; in experiment [2], 29.5 µM; in experiment [8], 41.9 µM; in [3], 48 µM; in [9] it was 75.7 µM; in experiment [4], 24.6 µM. Moreover, the TGI in experiment [5] is 43.3 µM; in experiment [6], 18.6 µM; in experiment [7], 70.9 µM.

On to `CN(Cc1ccccc1)C(=O)c1ccccc1C(=O)O`, for which the TGI in experiment [1], in experiment [2], in [8], in experiment [9], in [4] and in experiment [5] was > 100 µM throughout. The TGI in [6] was > 100 µM.

On to `c1cnn(CN(Cn2cccn2)Cn2cccn2)c1`, for which the TGI in experiment [2], in experiment [8], in experiment [3], in experiment [9], in experiment [4] and in experiment [5] was > 100 µM each time. The TGI in [6] and in experiment [7] was > 100 µM in each case.

Take `CCCC1=C(CC)C(C(=O)Nc2c(C)cccc2C)=NC(S)N1` (stereo unspecified): the TGI in experiment [1], in experiment [2], in experiment [8], in experiment [3], in experiment [9] and in [4] was > 100 µM in each case. Also, the TGI in [5] and in experiment [7] was > 100 µM in each case.

Regarding `CC(=O)C1Cn2c(nc3ccccc32)C[Se]1` (stereo unspecified), the TGI in [1] was found to be 12.5 µM; in [2], 4.96 µM; in experiment [8], 62.9 µM; in experiment [3], 5.39 µM; in [9], 4.72 µM; in experiment [4], 5.71 µM. In addition, the values for the TGI in experiment [5], in experiment [6] and in experiment [7] were 11.8 µM, 5.2 µM and 32.7 µM, respectively.

`COc1cc(Cc2nccc3cc(OC)c(OC)cc23)c(C(C)=O)cc1OC`: the TGI in [2] was > 750 µM; in experiment [8], 265 µM and > 750 µM; in experiment [3], 135 µM and 394 µM; in [9], 267 µM and > 750 µM; in experiment [4] it was 130 µM and > 750 µM; in experiment [5], 52.3 µM and 197 µM. For the same compound, the TGI in experiment [6] is 300 µM and > 750 µM; in experiment [7], > 300 µM and 507 µM. In addition, the GI50 in experiment [3] was 101 µM; in [9], 99.3 µM and > 750 µM; in experiment [4], > 750 µM; in experiment [5], 13.2 µM; in experiment [6] it was > 750 µM; in [7], 204 µM.

Turning to `CC1=CC(C)(C)N=C2SC(c3ccc(N)cc3)=NN12`, the TGI in experiment [1] is > 100 µM; in experiment [2], > 100 µM; in [8], > 66.3 µM; in [3], > 100 µM; in experiment [9] it was > 100 µM; in [4] it was > 53 µM. Besides, the TGI in [5], in [6] and in experiment [7] was > 100 µM throughout.

Consider `c1ccc(C2N3CCCCC3[C@@H]3c4[nH]c5ccccc5c4CCN23)nc1` (stereo partly specified), for which the TGI in experiment [2], in experiment [8], in experiment [3], in [9], in experiment [4] and in experiment [5] was > 100 µM throughout. Also, the TGI in [6] and in experiment [7] was > 100 µM throughout.

As to `COc1cc(/C=C/c2ccc(OC)c(O)c2)cc(OC)c1`, the TGI in [1] worked out at 16.7 µM; in [2] it was 12.8 µM; in experiment [8], 9.92 µM; in experiment [3], 15.4 µM; in experiment [9], 29.4 µM; in experiment [4], 4.43 µM. Further, the TGI in [5] is 67.9 µM; in experiment [6] it was 3.88 µM; in experiment [7] it was > 100 µM.

Consider `O=C(/C=C/c1ccc(Cl)c(Cl)c1)c1ccc2ccccc2c1`, for which the TGI in [1], in [2], in [8], in experiment [3], in experiment [9] and in [4] was > 100 µM each time. Further, the TGI in experiment [5], in experiment [6] and in experiment [7] was > 100 µM each time.

For the compound `CCOC(=O)N[C@@H]1C(CC(=O)OC)O[C@H]2OC(C)(C)O[C@H]21` (stereo partly specified), the TGI in [1], in experiment [2], in experiment [8], in experiment [3], in experiment [9] and in experiment [4] was > 100 µM each time. Moreover, the TGI in experiment [5], in experiment [6] and in experiment [7] was > 100 µM in each case.

`CCOC(=O)C1SC(=Nc2ccc(C)c(C)c2)N=C1C` (stereo unspecified): the TGI in [1], in experiment [2], in [8], in experiment [3], in experiment [9] and in [4] was > 100 µM each time. For the same compound, the TGI in [5] and in [7] was > 100 µM in each case.

As for `CC1=[N+]([O-])c2ccccc2C(=O)C1=O`, the TGI in experiment [1], in [2], in experiment [8], in experiment [3], in [9] and in [4] was > 100 µM throughout. In addition, the TGI in [5], in [6] and in experiment [7] was > 100 µM each time.

Turning to `COC(=O)C(CC(=O)Nc1ccc(C)cc1)C(=O)C(=O)Nc1c(C(C)C)cccc1C(C)C` (stereo unspecified), the TGI in experiment [1], in experiment [2], in experiment [8], in experiment [3], in experiment [9] and in experiment [4] was > 100 µM throughout. The TGI in experiment [5], in experiment [6] and in [7] was > 100 µM in each case.

On to `COc1ccc2c3c([nH]c2c1[N+](=O)[O-])C(C)N(C)CC3` (stereo unspecified), for which the TGI in experiment [1], in [2], in experiment [8], in experiment [3], in [9] and in [4] was > 100 µM in each case. Also, the TGI in [5] and in experiment [7] was > 100 µM throughout.

Turning to `[N-]=[N+]=C1C(=O)NN=C1c1ccccc1`, the TGI in experiment [1], in [2], in experiment [8], in experiment [9], in experiment [4] and in experiment [5] was > 100 µM in each case. Moreover, the TGI in experiment [6] was > 100 µM.

As for `O=C(c1cccc2ccccc12)N1CCC(C2CCN(C(=O)c3cccc4ccccc34)CC2)CC1`, the TGI in experiment [1], in experiment [2], in [8], in experiment [3], in experiment [9] and in experiment [4] was > 100 µM each time. Moreover, the TGI in [6] and in experiment [7] was > 100 µM throughout.

For `Cc1[nH]c(=O)nc2[nH][nH]c(=O)c12`, the TGI in experiment [1], in experiment [2], in experiment [8], in experiment [3], in experiment [9] and in [4] was > 100 µM throughout. Moreover, the TGI in experiment [5] and in [6] was > 100 µM in each case.

For `COc1ccc(CN2CC(C)(C)C2=O)c(OC)c1`, the TGI in experiment [1], in experiment [2], in [8], in experiment [3], in experiment [9] and in experiment [4] was > 100 µM in each case. For the same compound, the TGI in [5], in experiment [6] and in experiment [7] was > 100 µM in each case.

In the case of `O=C(N/N=C/c1cc(Br)ccc1O)N/N=C/c1cc(Br)ccc1O`, the TGI in experiment [1] was 9.64 µM; in experiment [3] it was > 100 µM; in experiment [9] it was 6.05 µM; in experiment [4], > 100 µM; in [5], > 100 µM; in experiment [6] it was > 100 µM. Further, in experiment [7], the TGI is > 100 µM.

For `Cc1nnc(NS(=O)(=O)c2ccc(N=Nc3cc(N=Nc4ccc(S(=O)(=O)Nc5nnc(C)s5)cc4)c4c(NC(=O)C(Cl)Cl)cccc4c3OC(=O)C(Cl)Cl)cc2)s1` (tested in a mixture with another compound), the TGI in experiment [2] is 73.4 µM; in [8] it was 21 µM; in [3], > 100 µM; in experiment [9], > 100 µM; in experiment [4], 42.4 µM; in experiment [5], 39 µM. Besides, the TGI in experiment [6] was 55.9 µM; in [7], > 100 µM.

Regarding `CN(C)CCC1(C2=CCCC2)CC/C(=C\c2ccc(Cl)cc2)C1=O` (stereo unspecified), the TGI is 28.1 µM in experiment [1]; 3.84 µM in experiment [2]; 22.4 µM in experiment [8]; 32.7 µM in experiment [3]; 15.4 µM in experiment [9]; 3.91 µM in [4]. Also, the TGI in experiment [5] was 21.5 µM; in experiment [6] it was 10.9 µM; in experiment [7] it was 19.1 µM.

For the compound `CC12OC(C(=O)C13CC3)C1C(=O)c3ccc4c(ccc5ccccc54)c3C(=O)C12` (stereo unspecified), the GI50 in [2] is 25.2 µM; in experiment [3], 28.9 µM; in experiment [9], 27.5 µM; in [4], 33.2 µM; in experiment [6] it was 22.5 µM. Besides, the TGI in experiment [2] was 95 µM; in experiment [3], 99.8 µM; in experiment [9], > 100 µM; in experiment [4], > 100 µM; in experiment [6], 61.8 µM.

As to `O=C(O)CNS(=O)(=O)c1ccc(NC(=O)c2ccc([N+](=O)[O-])cc2)cc1`, the TGI in [1], in experiment [2], in [8], in experiment [9], in experiment [4] and in experiment [5] was > 100 µM throughout. The TGI in experiment [6] and in experiment [7] was > 100 µM throughout.

For `O=C(CCc1nc(=S)[nH][nH]1)Nc1ccccc1Cl`, the TGI in experiment [1], in experiment [2], in experiment [8], in [3], in experiment [9] and in experiment [4] was > 100 µM throughout. Besides, the TGI in experiment [5], in experiment [6] and in experiment [7] was > 100 µM in each case.
